Where “and” joins values, the source holds several entries; their conditions need not be identical. Equal values may be shown once. Read-outs that look alike come from different tables or passages of the source.
Tests used:
PANC-1 cells = experiment: CellTiter-Glo luminescent cell viability assay, PANC-1
PANC-1 and Fadu cells = experiment: CellTiter-Glo viability, statements covering both cancer cell lines; format: cell-based, human; settings: 72 h dose–response
HEK293T WT cells = experiment: CellTiter-Glo cell viability assay, HEK293T WT; settings: for HEK293T WT Cell viability (% of controll): dose–response, individual replicates
Description: (§1) Primary fibroblast cultures were prepared from human skin biopsies and maintained in DMEM supplemented with 10% FBS, 1% penicillin-streptomycin, and 1% MEM Non-Essential Amino Acids Solution (Thermo Fisher Scientific). […] All cell lines were cultured in a humidified atmosphere at 37 °C and 5% CO2, passaged twice a week, and the experiments were performed on cells between passage 5 and 15. The cell lines were routinely screened for the absence of mycoplasma infection (DAPI staining).
(§2) The effects of the synthesized compounds on cell viability were measured using the CellTiter-Glo® luminescent cell viability assay (Promega, Madison, WI, USA), according to the manufacturer’s instructions. Briefly, cells were seeded onto a flat-bottomed, white 96-well plate (BRANDplates, cat. no.: 781965)), with the following densities: PANC-1: 750 cells/well, Fadu: 2000 cells/well, primary fibroblasts: 2000 cells/well, HEK293T WT: 1000 cells/well, HEK293T CLPP^−/−: 2500 cells/well. After seeding, cells were incubated for a further 48 h before treatment. Cells were treated with the compounds for 72 h. Three concentrations (25.0 µM; 8.3 µM; 2.8 µM) were applied during the initial cell viability screening, while for the determination of dose–response curves, 1.5-fold serially diluted compound concentrations were applied (range: 26 µM–0.7 µM). After treatment, the luminescence signal was recorded using a microplate reader (BioTek Synergy 2 Multi-Mode Reader, BioTek, Winooski, VT, USA).
(§3) Data analysis was performed using GraphPad Prism 9.5.0 software (GraphPad Software, San Diego, CA, USA). […] The dose–response curves were generated by four-parameter nonlinear regression, and the IC50 values were determined as the means ± SEM of the best-fit values of 3 independent measurements. The R^2 values were consistently above 0.93, indicating a strong fit of the model to the experimental data (Supplementary S.89). […] Dunnett’s post hoc test was applied to adjust for multiple comparisons, minimizing the likelihood of false positive results. Assumptions for ANOVA, including normality (assessed via QQ plots) and homogeneity of variance (tested using the Brown–Forsythe test), were verified. The following significance levels were applied: * p < 0.05, ** p < 0.01, *** p < 0.001, **** p < 0.0001. […] The tumor selectivity of the compounds was quantitatively characterized by the selectivity index (SI). This parameter was calculated as the ratio of the average best-fit IC50 value for primary fibroblasts and the best-fit IC50 value for the corresponding tumor cells (PANC-1 or Fadu).

[1] = CellTiter-Glo cell viability assay, HEK293T WT; settings: human, HEK293T WT cells, HEK293T WT Cell viability (% of controll), 72 h, dose–response, individual replicates
Description: as §1, §2, §3

[2] = CellTiter-Glo luminescent cell viability assay, primary fibroblasts; settings: human, primary skin fibroblasts (non-tumorous), Primer fibroblast Cell viability (% of controll), 72 h, dose–response, individual replicates
[3] = tested on: non-tumorous primary fibroblast cells; experiment: as above; settings: for Primer fibroblast Cell viability (% of controll): dose–response, individual replicates; for IC50: Homo sapiens, Fibroblast

Molecule `CNCC#Cc1cccc(CN2C(=O)C3=C(CCN(Cc4ccc(-n5cc(-c6ccccc6)nn5)cc4)C3)N3CCN=C23)c1` [38b] has a viability at 5.1 µM (PANC-1 cells; Homo sapiens, PANC-1, 72 h, read-out: PANC-1 Cell viability (% of controll), 5.1 μM, 72 h, dose–response, individual replicates) of 0%, a viability at 7.7 µM (PANC-1 cells; Homo sapiens, PANC-1, 72 h, read-out: PANC-1 Cell viability (% of controll), 7.7 μM, 72 h, dose–response, individual replicates) of 0% and a viability at 17.3 µM (PANC-1 cells; Homo sapiens, PANC-1, 72 h, read-out: PANC-1 Cell viability (% of controll), 17.3 μM, 72 h, dose–response, individual replicates) of 0%. For the same molecule, the viability at 26 µM (PANC-1 cells; Homo sapiens, PANC-1, 72 h, read-out: PANC-1 Cell viability (% of controll), 26 μM, 72 h, dose–response, individual replicates) was 0%, the IC50 (PANC-1 cells; Homo sapiens, PANC-1, read-out: PANC-1 IC50 values, Mean, mean of independently fitted replicate IC50 values (Supplement S.6)) was 2450 nM and the “Selectivity Index (SI) Fibroblast/PANC-1” value (PANC-1 cells; ratio of mean best-fit IC50 for primary fibroblasts and best-fit IC50 for PANC-1) was 1.8. The “concentration range of almost complete eradication of PANC-1 and Fadu cells with little to no cytotoxic effect toward fibroblasts” value (PANC-1 and Fadu cells) was 3000 to 4000 nM, the “HEK293T WT Cell viability (% of controll)” value (HEK293T WT cells; 0.4 μM, 72 h) was 116 % of controll and 117 % of controll and 121 % of controll and the “HEK293T WT Cell viability (% of controll)” value (HEK293T WT cells; 0.6 μM, 72 h) was 110 % of controll and 120 % of controll and 116 % of controll. The “HEK293T WT Cell viability (% of controll)” value (HEK293T WT cells; 1.0 μM, 72 h) was 110 % of controll and 102 % of controll, the “HEK293T WT Cell viability (% of controll)” value (HEK293T WT cells; 1.6 μM, 72 h) was 66 % of controll and 67 % of controll and 83 % of controll and the “HEK293T WT Cell viability (% of controll)” value (HEK293T WT cells; 2.5 μM, 72 h) was 6 % of controll and 15 % of controll and 12 % of controll (2×). For the same molecule, the “HEK293T WT Cell viability (% of controll)” value (HEK293T WT cells; 4.0 μM, 72 h) was 0 % of controll, the “HEK293T WT Cell viability (% of controll)” value (HEK293T WT cells; 6.4 μM, 72 h) was 0 % of controll and the “HEK293T WT Cell viability (% of controll)” value (HEK293T WT cells; 16.25 μM, 72 h) was 0 % of controll. The “HEK293T WT Cell viability (% of controll)” value (HEK293T WT cells; 26 μM, 72 h) was 0 % of controll, the IC50 (HEK293T WT cells; Homo sapiens, HEK-293T, 72 h, read-out: IC50 (µM) HEK293T WT, 72 h treatment, ± SEM, best-fit values, n = 4) was 1.7 ± 0.02 µM and the IC50 (HEK293T WT cells; Homo sapiens, HEK-293T, read-out: HEK293T WT IC50 values, Mean, mean of independently fitted replicate IC50 values (Supplement S.6)) was 1.67 µM. For the same molecule, the IC50 (HEK293T WT cells; Homo sapiens, HEK-293T, read-out: HEK293T WT IC50 values, individual replicates n1-n4, IC50 independently determined for each replicate measurement (Supplement S.6)) was 1.61 µM, the IC50 (HEK293T WT cells; read-out: HEK293T WT IC50 values, individual replicates n1-n4, IC50 independently determined for each replicate measurement (Supplement S.6)) was 1.66 µM and 1.63 µM and 1.79 µM and the viability at 72 h, 0.4 µM ([1]; 0.4 μM) was 121%. The viability at 72 h, 0.6 µM ([1]; 0.6 μM) was 107%, the viability at 72 h, 1 µM ([1]; 1.0 μM) was 109% and the viability at 72 h, 1.6 µM ([1]; 1.6 μM) was 64%. It also gave a viability at 72 h, 4 µM ([1]; 4.0 μM) of 0%, a viability at 72 h, 6.4 µM ([1]; 6.4 μM) of 0% and a viability at 72 h, 16.25 µM ([1]; 16.25 μM) of 0%. It also gave a viability at 72 h, 26 µM ([1]; 26 μM) of 0%, a viability at 72 h, 0.7 µM ([2]; 0.7 μM) of 103% and a viability at 72 h, 1 µM ([2]; 1 μM) of 112%. It also gave a viability at 72 h, 1.5 µM ([2]; 1.5 μM) of 106%, a viability at 72 h, 2.3 µM ([2]; 2.3 μM) of 116% and a viability at 72 h, 3.4 µM ([2]; 3.4 μM) of 112%. For the same molecule, the viability at 72 h, 5.1 µM ([2]; 5.1 μM) was 6%, the viability at 72 h, 7.7 µM ([2]; 7.7 μM) was 0% and the viability at 72 h, 17.3 µM ([2]; 17.3 μM) was 0%. For the same molecule, the viability at 72 h, 26 µM ([2]; 26 μM) was 0%, the “Primer fibroblast Cell viability (% of controll)” value ([3]; 0.7 μM, 72 h) was 107 % of controll and 109 % of controll and the “Primer fibroblast Cell viability (% of controll)” value ([3]; 1 μM, 72 h) was 117 % of controll and 101 % of controll. The “Primer fibroblast Cell viability (% of controll)” value ([3]; 1.5 μM, 72 h) was 118 % of controll, the “Primer fibroblast Cell viability (% of controll)” value ([3]; 2.3 μM, 72 h) was 107 % of controll and the “Primer fibroblast Cell viability (% of controll)” value ([3]; 3.4 μM, 72 h) was 110 % of controll and 101 % of controll. The “Primer fibroblast Cell viability (% of controll)” value ([3]; 5.1 μM, 72 h) was 5 % of controll and 8 % of controll, the “Primer fibroblast Cell viability (% of controll)” value ([3]; 7.7 μM, 72 h) was 0 % of controll and the “Primer fibroblast Cell viability (% of controll)” value ([3]; 17.3 μM, 72 h) was 0 % of controll. The “Primer fibroblast Cell viability (% of controll)” value ([3]; 26 μM, 72 h) was 0 % of controll, the IC50 ([3]; 72 h, read-out: IC50 Value ± SEM Primary Fibroblast, 72 h treatment, best-fit values, n = 3) was 4400 ± 230 nM and the IC50 ([3]; read-out: Primary fibroblast IC50 values, Mean, mean of independently fitted replicate IC50 values (Supplement S.6), ONC201 value mathematically estimated from inflection point) was 4450 nM.
